Among the data in US20250051282A1, “COMPOUNDS FOR TREATING POLYQ-RELATED NEURODEGENERATIVE DISORDERS” (HANGZHOU JIJING PHARMACEUTICAL TECHNOLOGY LIMITED, priority 2021, published 2025) are DC50 values, retold here.

SMILES strings stand for the structures. A value given as a limit tells only on which side of the number the result lay.

The subject of one test is ATXN1(60Q). Nature of the test: Daoy-ATXN1(60Q)-mATXN1 MSD assay (CTG normalized). Format: cell-based. The settings on record: Daoy-Flag-ATXN1(60Q) stable cells, compound added Day 2, lysis Day 3, final DMSO 0.3%, read-out: Daoy-ATXN1(60Q)-mATXN1 MSD (CTG normalized) DC50. The protocol:
Protocol for MSD Assay: Daoy-ATXN1(600)-mATXN1 MSD (CTG normalized)
The Flag-ATXN1(60Q) gene is synthesized by Genescript and cloned into the pLVX-IRES-Puro vector (Takarabio, catalog No. 632183) using EcoRI/BamHI restriction enzyme sites. Lentivirus is made by transfecting HEK293T cells with pLVX-IRES-Puro-Flag-ATXN1(60Q) plasmids and packaging plasmids psPAX2 and pMD2.G at 4:3:1 ratio (8:6:[…], respectively) in 10 cm plates, and are harvested at 48 hours post transfection. Daoy cells (ATCC catalog No. HTB-186) seeded in T25 flasks are infected with the lentivirus in the presence of 8 µg/mL polybrene (Sigma, TR-1003-G) for 24 hours. 48 hours post infection, the cells are selected using 0.5 […] (Sigma, P8833) for more than 5 days until all cells in the uninfected group die. The expression of Flag-ATXN1(60Q) is verified by anti-Flag immunoblot using anti-Flag antibody (Sigma, F1804-200UG, M2).
As explained above, Daoy-Flag-ATXN1(60Q) cells are prepared as a stable cell line by infecting Daoy cells with lentivirus. The media for the cells is EMEM (ATTC, 30-2008) with 10% fetal bovin serum (FBS).
On Day 1, the Daoy-Flag-ATXN1(60Q) cells are seeded in a 96 well plate at a concentration of 1.2×10^4/well. On Day 2, the cells are treated with test compounds at test concentrations (compounds are serially diluted with DMSO to obtain test concentrations, such that final DMSO concentration is 0.3%). On Day 3, the cells are washed with 100 μL of phosphate-buffered saline (PBS) per well, and then 30 μL of radioimmuno-precipitation assay (RIPA) buffer (with protease and phosphatase inhibitor cocktail) is added to each well.
The well plate is then cooled on ice for 30 minutes in order to complete lysis, and MSD samples are prepared using 10 μL of Daoy-Flag-ATXN1-60Q lysate and 90 μL of RIPA buffer with gentle mixing. Each MSD sample has a total volume of 100 μL, and is used immediately or stored at −80° C.
A standard Meso Scale Discovery (MSD) plate is coated with anti-Flag (Sigma, F1804-200UG, M2) in PBS at 1:500 dilution ratio and 40 µL/well, and is incubated at 4° C. overnight with shaking at 600 rpm. Then, the MSD plate is washed 3 times with 150 µL/well of 1X TBST (tris-buffered saline (TBS) with Tween 20) buffer, and the MSD plate is blocked with 150 μL of blocking buffer [3% Blocker A in 1X TBST, (3 g Blocker A per 100 mL 1X TBST)] and shaken for 1 hour at 600 rpm at room temperature. Then, the MSD plate is washed three times with 150 μL/well of 1X TBST. Next, the diluted lysate samples (from Sample Preparation above) are added to the MSD plate at 25 μL/well, and the MSD plate is shaken at 600 rpm for 1 hour at room temperature. Then the MSD plate is washed 3 times with 150 μL/well of 1X TBST.
Detection antibody anti-Ataxin 1 (G-bio, ITA1916) (1:500), which is prepared in antibody detection buffer (1% Blocker A in 1X TBST), is then added to the MSD plate at 25 µL/well, and the MSD plate is shaken at 600 rpm for 1 hour at room temperature. The MSD plate is then washed three times with 150 μL/well of 1X TBST. Next, a secondary detection antibody, Goat anti-rabit (GAR) with SULFO-TAG (1:500), which is prepared in antibody detection buffer (1% Blocker A in 1X TBST), is added at 25 μL/well and the MSD plate is shaken at 600 rpm for 1 hour at room temperature. Then the MSD plate is washed 3 times with 150 μL/well of 1X TBST, and 2X MSD reading buffer is added at 150 μL/well (diluted from 4x MSD reading buffer with water). Finally, the signal from each well is measured on the MSD Meso QuickPle SQ120 Plate Reader. DC50 data is calculated using collaborate drug discovery (CDD) software (https://www.collaborativedrug.com/about).
Take `NCCN/C(=C1\C(=O)Nc2ccc(Br)cc21)c1cccc(O)c1` [Example 27, (Z)-3-(((2-aminoethyl)amino)(3-hydroxyphenyl)methylene)-5-bromo indolin-2-one]: the DC50 was < 10 µM.

In the case of `O=C1Nc2ccc(Br)cc2/C1=C(/Nc1cnccn1)c1ccccc1` [Example 46, (Z)-5-bromo-3-(phenyl(pyrazin-2-ylamino)methylene) indolin-2-one], the DC50 was > 30 µM.

Consider `O=C1Nc2ccc(Br)cc2/C1=C(/Nc1cnccn1)c1cccc(O)c1` [Example 72, (Z)-5-bromo-3-((3-hydroxyphenyl) (pyrazin-2-ylamino)methylene)indolin-2-one], for which the DC50 is < 10 µM.

As to `Cn1cc(N/C(=C2\C(=O)Nc3ccc(Br)cc32)c2ccc(F)c(F)c2)cn1` [Example 43, (Z)-5-bromo-3-((3,4-difluorophenyl)((1-methyl-1H-pyrazol-4-yl)amino)methylene) indolin-2-one], the DC50 is > 30 µM.

With `O=C1Nc2ccc(Br)cc2/C1=C(/NC1CC1)c1cccc(O)c1` [Example 7, (Z)-5-bromo-3-((cyclopropylamino) (3-hydroxyphenyl)methylene)indolin-2-one], the DC50 is < 10 µM.

As for `N/C(=C1\C(=O)Nc2ccc(Br)cc21)c1ncccn1` [Example 78, (Z)-3-(amino (pyrimidin-2-yl)methylene)-5-bromoindolin-2-one], the DC50 was > 30 µM.

Regarding `Nc1cccc(/C(Nc2ccnnc2)=C2/C(=O)Nc3ccc(Br)cc32)c1` [Example 60, (Z)-3-((3-aminophenyl) (pyridazin-4-ylamino)methylene)-5-bromo indolin-2-one], the DC50 was < 10 µM.

For the compound `CC(=O)NCCOCCOCCOCCN/C(=C1\C(=O)Nc2ccc(Br)cc21)c1cccc(O)c1` [Example 61, (Z)—N-(1-(5-bromo-2-oxoindolin-3-ylidene)-1-(3-hydroxyphenyl)-5,8,11-trioxa-2-azatridecan-13-yl)acetamide], the DC50 fell in the range of 10 to 30 µM.

For the compound `O=C1Nc2ccc(Br)cc2/C1=C(/Nc1ccnnc1)c1ccccc1` [Example 39, (Z)-5-bromo-3-(phenyl(pyridazin-4-ylamino)methylene) indolin-2-one], the DC50 was < 10 µM.

Take `O=C1Nc2ccc(Br)cc2/C1=C(/Nc1cccnc1)c1cccc(O)c1` [Example 66, (Z)-5-bromo-3-((3-hydroxyphenyl) (pyridin-3-ylamino)methylene)indolin-2-one]: the DC50 is < 10 µM.

As for `O=C1Nc2ccc(Br)cc2/C1=C(/Nc1cnn(C(F)F)c1)c1ccccc1` [Example 55, (Z)-5-bromo-3-(((1-(difluoromethyl)-1H-pyrazol-4-yl)amino)(phenyl)methylene)indolin-2-one], the DC50 is > 30 µM.

Regarding `Nc1cccc(/C(Nc2cn[nH]c2)=C2/C(=O)Nc3ccc(Br)cc32)c1` [Example 59, (Z)-3-(((1H-pyrazol-4-yl)amino)(3-aminophenyl)methylene)-5-bromoindolin-2-one], the DC50 is < 10 µM.

As for `O=C1Nc2ccc(Br)cc2/C1=C(/NC1CNC1)c1cccc(F)c1` [Example 37, (Z)-3-((azetidin-3-ylamino)(3-fluorophenyl)methylene)-5-bromoindolin-2-one], the DC50 is < 10 µM.

Consider `O=C1Nc2ccc(Br)cc2/C1=C(/Nc1ccnnc1)c1ccc(F)c(F)c1` [Example 42, (Z)-5-bromo-3-((3,4-difluorophenyl) (pyrazin-4-ylamino)methylene) indolin-2-one], for which the DC50 was > 30 µM.

As to `Nc1cccc(/C(NCCCF)=C2/C(=O)Nc3ccc(Br)cc32)c1` [Example 58, (Z)-3-((3-aminophenyl)((3-fluoropropyl)amino)methylene)-5-bromoindolin-2-one], the DC50 is < 10 µM.

For the compound `CN/C(=C1\C(=O)Nc2ccc(Br)cc21)c1cccc(O)c1` [Example 1, (Z)-5-bromo-3-((3-hydroxyphenyl) (methylamino)methylene) indolin-2-one], the DC50 is < 10 µM.

The same test, now with this note: read-out: Daoy-ATXN1(60Q)-mATXN1 MSD (CTG normalized) DC50, Daoy-Flag-ATXN1(60Q) stable cells, compound added Day 2, lysis Day 3, final DMSO 0.3%.
For the compound `CCCN/C(=C1\C(=O)Nc2ccc(Br)cc21)c1cccc(O)c1` [Example 5, (Z)-5-bromo-3-((3-hydroxyphenyl) (propylamino)methylene) indolin-2-one], the DC50 is < 10 µM.
